Test results reported in patent US12214092B2, “Systems and methods for treating biological fluids” (Cerus Corporation, priority 2017, dated 2025).

Legend:
platelets = assay: Platelet quality, platelets in 35% plasma/65% PAS III, amotosalen 30-110 μM, 340 nm device ~7.2 J/cm^2; format: cell-based
[1] = Residual amotosalen in whole-blood derived plasma, 50 μM, ~6.4 J/cm^2, HPLC; format: physicochemical
Source text: This pool and split format was repeated four times to generate four replicates.

Cc1oc2c(C)c3oc(=O)cc(C)c3cc2c1COCCN [S-59, 3-(2-aminoethoxymethyl)-2,5,9-trimethylfuro[3,2-g]chromen-7-one]
Glucose (platelets; 30 μM, D4): 3.27 mmol/L | LDH (platelets; 30 μM, D4): 7.44 LDH IU/10^11 platelets | Lactate (platelets; 30 μM, D4): 7.1 mmol/L | Platelet counts (platelets; 30 μM, D4): 1385 x10^3 cells/μL | Platelet lysis (platelets; 30 μM, D4): 2.86% | pCO2 at 37° C. (platelets; 30 μM, D4): 26.7 mm Hg | pH at 22° C. (platelets; 30 μM, D4): 7.11 | pH at 37° C. (platelets; 30 μM, D4): 6.88 | pO2 at 37° C. (platelets; 30 μM, D4): 28.9 mm Hg | Glucose (platelets; 30 μM, D7): 0.16 mmol/L | LDH (platelets; 30 μM, D7): 8.26 LDH IU/10^11 platelets | Lactate (platelets; 30 μM, D7): 15.38 mmol/L | Platelet counts (platelets; 30 μM, D7): 1392 x10^3 cells/μL | Platelet lysis (platelets; 30 μM, D7): 3.17% | pCO2 at 37° C. (platelets; 30 μM, D7): 23.6 mm Hg | pH at 22° C. (platelets; 30 μM, D7): 7.08 | pH at 37° C. (platelets; 30 μM, D7): 6.86 | pO2 at 37° C. (platelets; 30 μM, D7): 57.3 mm Hg | Glucose (platelets; 30 μM, Post-UV): 5.45 mmol/L | LDH (platelets; 30 μM, Post-UV): 7.80 LDH IU/10^11 platelets | Lactate (platelets; 30 μM, Post-UV): 8.21 mmol/L | Platelet counts (platelets; 30 μM, Post-UV): 1308 x10^3 cells/μL | Platelet lysis (platelets; 30 μM, Post-UV): 2.85% | pCO2 at 37° C. (platelets; 30 μM, Post-UV): 34.9 mm Hg | pH at 22° C. (platelets; 30 μM, Post-UV): 7.07 | pH at 37° C. (platelets; 30 μM, Post-UV): 6.84 | pO2 at 37° C. (platelets; 30 μM, Post-UV): 11.6 mm Hg | Glucose (platelets; 30 μM, Pre-UV): 5.2 mmol/L | LDH (platelets; 30 μM, Pre-UV): 7.13 LDH IU/10^11 platelets | Lactate (platelets; 30 μM, Pre-UV): 8.6 mmol/L | Platelet counts (platelets; 30 μM, Pre-UV): 1346 x10^3 cells/μL | Platelet lysis (platelets; 30 μM, Pre-UV): 2.46% | pCO2 at 37° C. (platelets; 30 μM, Pre-UV): 35.0 mm Hg | pH at 22° C. (platelets; 30 μM, Pre-UV): 7.07 | pH at 37° C. (platelets; 30 μM, Pre-UV): 6.85 | pO2 at 37° C. (platelets; 30 μM, Pre-UV): 4.8 mm Hg | Glucose (platelets; 60 μM, D4): 2.92 mmol/L | LDH (platelets; 60 μM, D4): 8.12 LDH IU/10^11 platelets | Lactate (platelets; 60 μM, D4): 10.11 mmol/L | Platelet counts (platelets; 60 μM, D4): 1379 x10^3 cells/μL | Platelet lysis (platelets; 60 μM, D4): 3.10% | pCO2 at 37° C. (platelets; 60 μM, D4): 26.6 mm Hg | pH at 22° C. (platelets; 60 μM, D4): 7.11 | pH at 37° C. (platelets; 60 μM, D4): 6.88 | pO2 at 37° C. (platelets; 60 μM, D4): 28.8 mm Hg | Glucose (platelets; 60 μM, D7): 0 mmol/L | LDH (platelets; 60 μM, D7): 8.48 LDH IU/10^11 platelets | Lactate (platelets; 60 μM, D7): 15.16 mmol/L | Platelet counts (platelets; 60 μM, D7): 1403 x10^3 cells/μL | Platelet lysis (platelets; 60 μM, D7): 3.37% | pCO2 at 37° C. (platelets; 60 μM, D7): 23.1 mm Hg | pH at 22° C. (platelets; 60 μM, D7): 7.08 | pH at 37° C. (platelets; 60 μM, D7): 6.86 | pO2 at 37° C. (platelets; 60 μM, D7): 61.0 mm Hg | Glucose (platelets; 60 μM, Post-UV): 5.04 mmol/L | LDH (platelets; 60 μM, Post-UV): 7.53 LDH IU/10^11 platelets | Lactate (platelets; 60 μM, Post-UV): 6.93 mmol/L | Platelet counts (platelets; 60 μM, Post-UV): 1249 x10^3 cells/μL | Platelet lysis (platelets; 60 μM, Post-UV): 2.65% | pCO2 at 37° C. (platelets; 60 μM, Post-UV): 35.1 mm Hg | pH at 22° C. (platelets; 60 μM, Post-UV): 7.06 | pH at 37° C. (platelets; 60 μM, Post-UV): 6.83 | pO2 at 37° C. (platelets; 60 μM, Post-UV): 8.0 mm Hg | Glucose (platelets; 60 μM, Pre-UV): 5.16 mmol/L | LDH (platelets; 60 μM, Pre-UV): 7.66 LDH IU/10^11 platelets | Lactate (platelets; 60 μM, Pre-UV): 6.72 mmol/L | Platelet counts (platelets; 60 μM, Pre-UV): 1344 x10^3 cells/μL | Platelet lysis (platelets; 60 μM, Pre-UV): 2.68% | pCO2 at 37° C. (platelets; 60 μM, Pre-UV): 33.7 mm Hg | pH at 22° C. (platelets; 60 μM, Pre-UV): 7.08 | pH at 37° C. (platelets; 60 μM, Pre-UV): 6.85 | pO2 at 37° C. (platelets; 60 μM, Pre-UV): 29.4 mm Hg | Glucose (platelets; 90 μM, D4): 2.97 mmol/L | Lactate (platelets; 90 μM, D4): 9.83 mmol/L | Platelet counts (platelets; 90 μM, D4): 1373 x10^3 cells/μL | Platelet lysis (platelets; 90 μM, D4): 3.23% | pCO2 at 37° C. (platelets; 90 μM, D4): 26.9 mm Hg | pH at 22° C. (platelets; 90 μM, D4): 7.10 | pH at 37° C. (platelets; 90 μM, D4): 6.87 | pO2 at 37° C. (platelets; 90 μM, D4): 25.7 mm Hg | Glucose (platelets; 90 μM, D7): 0 mmol/L | LDH (platelets; 90 μM, D7): 8.67 LDH IU/10^11 platelets | Lactate (platelets; 90 μM, D7): 14.62 mmol/L | Platelet counts (platelets; 90 μM, D7): 1384 x10^3 cells/μL | Platelet lysis (platelets; 90 μM, D7): 3.53% | pCO2 at 37° C. (platelets; 90 μM, D7): 22.6 mm Hg | pH at 22° C. (platelets; 90 μM, D7): 7.10 | pH at 37° C. (platelets; 90 μM, D7): 6.87 | pO2 at 37° C. (platelets; 90 μM, D7): 61.8 mm Hg | Glucose (platelets; 90 μM, Post-UV): 4.95 mmol/L | Lactate (platelets; 90 μM, Post-UV): 7.11 mmol/L | Platelet counts (platelets; 90 μM, Post-UV): 1313 x10^3 cells/μL | Platelet lysis (platelets; 90 μM, Post-UV): 2.64% | pCO2 at 37° C. (platelets; 90 μM, Post-UV): 33.7 mm Hg | pH at 22° C. (platelets; 90 μM, Post-UV): 7.06 | pH at 37° C. (platelets; 90 μM, Post-UV): 6.83 | pO2 at 37° C. (platelets; 90 μM, Post-UV): 29.3 mm Hg | Glucose (platelets; 90 μM, Pre-UV): 4.9 mmol/L | Lactate (platelets; 90 μM, Pre-UV): 6.95 mmol/L | Platelet counts (platelets; 90 μM, Pre-UV): 1344 x10^3 cells/μL | Platelet lysis (platelets; 90 μM, Pre-UV): 2.76% | pCO2 at 37° C. (platelets; 90 μM, Pre-UV): 34.9 mm Hg | pH at 22° C. (platelets; 90 μM, Pre-UV): 7.06 | pH at 37° C. (platelets; 90 μM, Pre-UV): 6.84 | pO2 at 37° C. (platelets; 90 μM, Pre-UV): 9.0 mm Hg | Platelet counts (platelets; 110 μM, D4): 0 x10^3 cells/μL | Platelet counts (platelets; 110 μM, D7): 0 x10^3 cells/μL | Glucose (platelets; 110 μM, Post-UV): 4.88 mmol/L | LDH (platelets; 110 μM, Post-UV): 6.97 LDH IU/10^11 platelets | Lactate (platelets; 110 μM, Post-UV): 7.18 mmol/L | Platelet counts (platelets; 110 μM, Post-UV): 1335 x10^3 cells/μL | Platelet lysis (platelets; 110 μM, Post-UV): 2.72% | pCO2 at 37° C. (platelets; 110 μM, Post-UV): 34.2 mm Hg | pH at 22° C. (platelets; 110 μM, Post-UV): 7.05 | pH at 37° C. (platelets; 110 μM, Post-UV): 6.83 | pO2 at 37° C. (platelets; 110 μM, Post-UV): 16.1 mm Hg | Glucose (platelets; 110 μM, Pre-UV): 4.95 mmol/L | LDH (platelets; 110 μM, Pre-UV): 7.42 LDH IU/10^11 platelets | Lactate (platelets; 110 μM, Pre-UV): 6.85 mmol/L | Platelet counts (platelets; 110 μM, Pre-UV): 1308 x10^3 cells/μL | Platelet lysis (platelets; 110 μM, Pre-UV): 2.65% | pCO2 at 37° C. (platelets; 110 μM, Pre-UV): 33.7 mm Hg | pH at 22° C. (platelets; 110 μM, Pre-UV): 7.07 | pH at 37° C. (platelets; 110 μM, Pre-UV): 6.84 | pO2 at 37° C. (platelets; 110 μM, Pre-UV): 6.3 mm Hg | residual amotosalen concentration ([1]; 340 nm device): 4.65 µM | residual amotosalen concentration ([1]; INT-100 device): 17.06 µM
